pIC50: −log10 of the molar value. Where two headings read alike, the source gives them in different places.
Legend:
[1] = target: T1, androgen receptor (adenovirus AdEasy+rAR in COS-7 cells) (Rattus norvegicus, UniProt P15207); assay: COS-7 Whole-Cell Androgen Receptor Binding Assay, Adenovirus Transduction; settings: for pIC50: read-out: IC50
T1 construct: expressed in transfected cells
T1 sequence (P15207 1-902): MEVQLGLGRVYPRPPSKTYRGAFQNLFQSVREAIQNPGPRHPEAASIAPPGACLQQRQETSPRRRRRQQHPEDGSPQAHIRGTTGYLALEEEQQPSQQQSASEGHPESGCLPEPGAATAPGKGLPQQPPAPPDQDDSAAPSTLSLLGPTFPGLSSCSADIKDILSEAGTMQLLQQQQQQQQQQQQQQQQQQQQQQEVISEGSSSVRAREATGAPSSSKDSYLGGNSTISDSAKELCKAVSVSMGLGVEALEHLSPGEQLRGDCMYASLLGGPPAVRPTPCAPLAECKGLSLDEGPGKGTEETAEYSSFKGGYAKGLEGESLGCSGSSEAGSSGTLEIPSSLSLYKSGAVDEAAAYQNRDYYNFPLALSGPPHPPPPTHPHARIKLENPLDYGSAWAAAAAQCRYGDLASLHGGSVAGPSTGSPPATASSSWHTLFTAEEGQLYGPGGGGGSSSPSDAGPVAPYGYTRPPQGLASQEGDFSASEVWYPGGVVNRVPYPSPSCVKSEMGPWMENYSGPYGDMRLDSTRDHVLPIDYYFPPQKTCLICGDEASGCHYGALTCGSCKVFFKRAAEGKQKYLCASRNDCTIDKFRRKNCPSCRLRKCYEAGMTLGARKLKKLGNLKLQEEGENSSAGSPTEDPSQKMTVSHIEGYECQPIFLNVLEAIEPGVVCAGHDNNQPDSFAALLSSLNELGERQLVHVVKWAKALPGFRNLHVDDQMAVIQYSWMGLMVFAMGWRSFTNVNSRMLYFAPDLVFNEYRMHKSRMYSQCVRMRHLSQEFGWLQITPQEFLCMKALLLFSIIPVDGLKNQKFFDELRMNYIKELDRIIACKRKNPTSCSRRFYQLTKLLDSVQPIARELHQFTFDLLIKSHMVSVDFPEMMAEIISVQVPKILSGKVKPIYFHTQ

[2] = target: T2, androgen receptor (rat ventral prostate cytosol) (Rattus norvegicus, UniProt P15207); assay: Androgen Receptor Binding Using Rat Ventral Prostate Cytosol
T2 construct: from tissue; host or cells: ventral prostate of castrated male Sprague Dawley or Wistar rats, cytosol
T2 sequence (P15207 1-902): T1 sequence (P15207 1-902)

[3] = COS binding, 3000 nM unless otherwise noted
[4] = rat cytosol, concentration 3000 nM

CC(O)(C[S+]([O-])Cc1ccccc1)c1cc2cc([N+](=O)[O-])c(C(F)(F)F)cc2[nH]1 (mixture of isomers) [compound 161]
% Inhibition [1, 3]: 20% | % Inhibition [2, 4]: 39%

CSCCC(C)(O)c1cc2cc([N+](=O)[O-])c(C(F)(F)F)cc2[nH]1 (racemic) [compound 47]
% Inhibition [1]: 78% | pIC50 ([1]; COS binding): < 6.00 | % Inhibition ([2]; 3 µM): 81%

COc1ccc(S(=O)(=O)CC(C)(O)c2cc3cc(Cl)c(C(F)(F)F)cc3[nH]2)cc1 (racemic) [compound 129]
% Inhibition [1, 3]: 10% | % Inhibition [2, 4]: 39.5%

COc1ccc(SCC(C)(O)c2cc3cc(Cl)c(C(F)(F)F)cc3n2S(C)(=O)=O)cc1 (racemic) [compound 130]
% Inhibition [1, 3]: −8% | % Inhibition [2, 4]: 32.55%

CC(C)CSCC(C)(O)c1cc2cc([N+](=O)[O-])c(C(F)(F)F)cc2[nH]1 (racemic) [compound 170]
% Inhibition [1]: 67% | pIC50 ([1]; COS binding): < 5.52 | % Inhibition [2, 4]: 80%
